Assays:
[1] = test system: Human Brain Microvascular Endothelial Cells (HBMECs); assay: Cell viability (MTT) of HBMEC subjected to hypoxia; format: cell-based; conditions: 1 μM; 6 h hypoxia, 24 h reperfusion; versus non-treated cells (FIG. 9)
Procedure: HBMEC (Cell systems, USA) between passage 3 and 9 were cultured to approximately 95% confluence using specialized cell medium (EGM-2 MV BulletKit, Lonza, The Netherlands) enriched with 5% fetal bovine serum before starting the hypoxia period. For hypoxia studies, HBMECs were seeded at specific density (6×10^4 cells/ml) in 12 wells-plate and incubated during 24 h at 37° C. Then, cell medium was replaced with non-FBS containing medium following by 6 h of hypoxia (94.8% N2, 0.2% O2 and 5% CO2) at 37° C. using hypoxia workstations (Ruskin Invivo2 400 station, The Netherlands). The hypoxia period was followed by 24 h of reperfusion in the presence or absence of 1 μM BAY 41-2272. Control cells were exposed to normoxia (75% N2, 20% O2 and 5% CO2) and enriched medium during the hypoxia period.
After 24 h of re-oxygenation period, cell viability was assessed using the colorimetric MTT assay. MTT solution (5 mg/ml) was added to each well (100 μl/ml) and incubated for 2 h at 37° C. The formazan salt formed was solubilized by adding 350 μl/well DMSO. The optical density was measured spectrophotometrically at 540 nm using a micro plate reader. Absorbance values obtained in control cells were set to 100% viability.

[2] = molecular target: T1, apo-sGC (sGCβ1 H105F knock-in) (Mus musculus, UniProt O54865, H105F); assay: sGC activity in lung homogenates of apo-sGC mice; format: biochemical
T1 construct: from tissue; host or cells: lung homogenate of homozygous sGCβ1 H105F knock-in mice
T1 sequence (O54865 1-620 H105F): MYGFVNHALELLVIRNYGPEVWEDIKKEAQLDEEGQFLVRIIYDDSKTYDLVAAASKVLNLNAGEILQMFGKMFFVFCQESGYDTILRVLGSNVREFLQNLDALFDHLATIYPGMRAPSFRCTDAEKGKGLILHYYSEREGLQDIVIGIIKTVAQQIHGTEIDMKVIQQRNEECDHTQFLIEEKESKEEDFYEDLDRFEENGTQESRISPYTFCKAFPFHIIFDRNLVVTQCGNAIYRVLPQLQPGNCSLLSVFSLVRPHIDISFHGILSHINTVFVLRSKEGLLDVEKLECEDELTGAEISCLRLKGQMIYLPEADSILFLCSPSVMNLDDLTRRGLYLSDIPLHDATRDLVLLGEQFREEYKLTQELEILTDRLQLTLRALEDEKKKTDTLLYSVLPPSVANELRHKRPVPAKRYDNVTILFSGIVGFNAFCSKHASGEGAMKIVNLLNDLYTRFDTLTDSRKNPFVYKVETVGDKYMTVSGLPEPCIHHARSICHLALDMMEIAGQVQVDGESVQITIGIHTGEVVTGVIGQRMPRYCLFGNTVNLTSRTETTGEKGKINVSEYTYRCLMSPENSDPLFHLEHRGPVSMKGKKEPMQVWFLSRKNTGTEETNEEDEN
T1 sequence (Q9ERL9 1-691 partner): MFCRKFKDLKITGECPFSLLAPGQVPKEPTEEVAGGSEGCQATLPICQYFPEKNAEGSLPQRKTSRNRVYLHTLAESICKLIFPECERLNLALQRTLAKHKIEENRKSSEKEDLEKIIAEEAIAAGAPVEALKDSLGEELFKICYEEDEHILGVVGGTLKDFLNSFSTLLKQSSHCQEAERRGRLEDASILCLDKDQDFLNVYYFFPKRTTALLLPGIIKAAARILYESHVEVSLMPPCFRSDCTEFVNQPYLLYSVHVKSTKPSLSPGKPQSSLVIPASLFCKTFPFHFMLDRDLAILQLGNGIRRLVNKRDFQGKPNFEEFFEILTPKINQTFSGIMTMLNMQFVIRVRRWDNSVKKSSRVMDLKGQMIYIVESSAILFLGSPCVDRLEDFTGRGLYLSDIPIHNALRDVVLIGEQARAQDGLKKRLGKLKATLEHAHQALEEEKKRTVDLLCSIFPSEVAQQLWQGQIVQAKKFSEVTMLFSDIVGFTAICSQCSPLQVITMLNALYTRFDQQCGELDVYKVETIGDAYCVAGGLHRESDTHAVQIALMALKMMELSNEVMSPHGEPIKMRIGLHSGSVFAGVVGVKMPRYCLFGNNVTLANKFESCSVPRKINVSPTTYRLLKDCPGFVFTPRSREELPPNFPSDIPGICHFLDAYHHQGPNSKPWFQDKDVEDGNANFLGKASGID
Procedure: Adult male Sprague Dawley (SD) rats (age, 10-12 weeks) were obtained from Animal Resources Centre (Western Australia). Animals were housed on a 12 hour day/night cycle at a room temperature of 20±2° C., in the Department of Pharmacology Animal House, Monash University. The animals were fed standard rodent chow and water was available ad libitum. Homozygous male sGC(1^H105F knock-in mice (“apo-sGC mice”) were kindly provided by Tufts Medical Center, Molecular Cardiology Research Center, Boston, Mass., USA (Toonen et al., Nat Commun. 2015; 6:8482. doi: 10.1038/ncomms9482).
To measure sGC activity, cells were stimulated with 250 μM DEA/NO or 10 μM BAY58-2667 for 3 min at 37° C. Thereafter, cells were immediately lysed in 80% ethanol. Cells were scraped and, after evaporation of ethanol, re-suspended in assay buffer and sonicated. Measurement of sGC activity in crude homogenates of mouse tissue was performed as previously described (Nedvetsky et al., Brain Res. 2002; 950(1-2):148-154. doi: 10.1016/50006-8993(02)03015-9).[9] Briefly, all samples were measured as the formation of cGMP at 37° C. during 10 min in a total incubation volume of […] containing 50 mM triethanolamine-HCl (pH 7.4), 3 mM MgCl2, 3 mM glutathione (Carl Roth, Karlsruhe, Germany), 1 mM IBMX, […], 5 mM creatine phosphate, 0.25 mg/ml creatine kinase and 1 mM or 0.5 mM GTP. After adding sGC activator in the absence or presence of the sGC stimulator the reaction was started by application of GTP solution. Following incubation of each sample for 10 min the reaction was stopped by boiling for 10 min at 95° C. Thereafter the amount of cGMP was subsequently determined by a commercial enzyme immunoassay kit (Enzo Life Sciences, Lorrach, Germany or Biotrend, Cologne, Germany). In some experiments pre-incubation of freshly homogenized tissue with ODQ at 37° C. for 20 min prior measuring sGC activation was required.

For `Nc1nc(-c2nn(Cc3ccccc3F)c3ncccc23)ncc1C1CC1` [BAY 41-2272, 5-cyclopropyl-2-[1-(2-fluoro-benzyl)-1H-pyrazolo[3,4-b]pyridin-3-yl]-pyrimidin-4-ylamine], the cell viability [1] was “significantly increased cell viability”, the “cGMP formation on stimulation with the sGC stimulator” value ([2]; 10 μM BAY 41-2272, in presence and in absence of 10 μM ODQ (FIG. 11)) was “cGMP is synthesized” and the “sGC activity, response to compound alone” value ([2]; lung homogenates of apo-sGC mice, compound alone) was “can also be activated”.

— patent publication US20230087609A1, “USE OF A SOLUBLE GUANYLATE CYCLASE (sGC) STIMULATOR OR OF A COMBINATION OF A sGC STIMULATOR AND AN sGC ACTIVATOR FOR CONDITIONS WHEREIN THE HEME GROUP OF sGC IS OXIDIZED OR WHEREIN sGC IS DEFICIENT IN HEME” (Universiteit Maastricht, priority 2020, published 2023)
